The values that follow come from paper PMC8577999 (Slas Discovery, 2021).

Common to all, as to type: cell-based, SARS-CoV-2
In one experiment the test system is SARS2-S D614G. Conditions: read-out: D614G IC50.
In the next experiment the test system is SARS2-S N501Y-D614G. The note with it: read-out: N501Y-D614G IC50.
Experiment [1] concerns SARS2-S UK variant (B.1.1.7). Description: microbe, parasite or virus in culture. Conditions: Severe acute respiratory syndrome coronavirus 2, read-out: UK IC50.
In experiment [2] the test system is SARS2-S SA variant (B.1.351). Briefly: microbe, parasite or virus in culture. Conditions: Severe acute respiratory syndrome coronavirus 2, read-out: SA IC50.

The IC50 is the concentration at which inhibition is half-maximal. On to `CCCC[C@@H](C=O)NC(=O)[C@H](CC(C)C)NC(=O)OCc1ccccc1` [SR-914, calpeptin], for which the IC50 in the experiment with SARS2-S D614G was 11.5 nM; in the experiment on SARS2-S N501Y-D614G it was 8.98 nM; in experiment [1] it was 34.7 nM; in experiment [2] it was 6.58 nM.
